Experimental data: patent US4073935A, “Substituted propanol-(2)-derivatives and their nicotinic acid esters, and process for their preparation, and the use thereof as hypolipemic drugs” (Klinge Pharma GmbH & Co., priority 1974, dated 1978)
Like-named read-outs stand apart in the source and are kept apart here.

Key:
[1] = Oral tolerance (acute toxicity, LD50); conditions: mouse, in vivo, mice, 8th day after treatment, Litchfield-Wilcoxon
Experimental: After oral administration of the test compounds to mice of strain NMR-I, weight 15-20 g, the acute toxicity was determined. LD50 values were calculated following Litchfield-Wilcoxon (J. Pharmak. Exp. Therap. 96, 99, 1949) and pertain to the 8th day after treatment.

[2] = system: serum lipids; experiment: Lipid-lowering action in normolipemic rats; type: in vivo; conditions: Rattus norvegicus, 72 h, 4 × 100 mg/kg oral over 3 days, male Wistar rats, vs controls, X ± Sx
Experimental: Lipid-lowering action was tested on groups of 10 male Wistar rats (Ivanovas-Kisslegg), weight 200-220 g, normolipemic, or ordinary ration ("ssniff" complete feed).
The test compounds were taken up in an aqueous solution of 0.25% agar and 0.85% NaCl and administered orally. After administration of 4 × 100 mg/kg over a period of 3 days, the animals were bled by cardiac puncture after privation of […] for 4 hours.^1
^1 H. Enomoto and R. Zschocke, 3rd Int. Symp. Atheroscler, Berlin 1973, Abstr. 238.
Serum lipids were determined with a Technicon autoanalyzer. Total cholesterol (TC) was tested by the Liebermann-Burchard reaction. Quantitative analysis for triglycerides (TG) was performed by Eggstein and Kreutz's enzyme method (Klin. Wschr. 44, 262, 1966), modified for autoanalyzer.
Lipid lowering effect is expressed as percent lowering of total cholesterol and triglycerides compared to controls.

[3] = read-out: % Lowering TC (total cholesterol)
[4] = read-out: % Lowering TG (triglycerides)

CCOC(=O)C(C)(C)Oc1ccc(Cl)cc1 [clofibrate, 2-(4'-chlorophenoxy)-2-methylpropionic acid ethyl ester, reference compound]
LD50 at 192 h [1]: 1900 mg/kg
inhibition in vivo at 100 mg/kg [2, 3]: 37.4 ± 13.6%
inhibition in vivo at 100 mg/kg [2, 4]: 50.4 ± 20%

CC(C)(C)c1ccc(SCC(O)COc2ccc(C(=O)O)cc2)cc1 (stereo not shown) [Compound 80, 3-(4'-Carboxyphenoxy)-1-(4'-t-butylphenylmercapto)-propanol-(2)]
inhibition in vivo at 100 mg/kg [2, 3]: 48.2 ± 11.6%
inhibition in vivo at 100 mg/kg [2, 4]: 71.6 ± 18.6%

COC(=O)c1ccc(OCC(O)CNc2ccc(Cl)cc2)cc1 (stereo not shown) [Compound 26, 3-(4'-methoxycarbonylphenoxy)-1-(4'-chlorophenylamino)-propanol-(2)]
inhibition in vivo at 100 mg/kg [2, 3]: 25.8 ± 23.7%
inhibition in vivo at 100 mg/kg [2, 4]: 81 ± 5.2%

COC(=O)c1cccc(OCC(O)COc2ccc(Cl)cc2)c1 (stereo not shown) [Compound 6]
inhibition in vivo at 100 mg/kg [2, 3]: 28.5 ± 10%
inhibition in vivo at 100 mg/kg [2, 4]: 78.1 ± 11.2%

CC(C)(C)c1ccc(OCC(O)COc2ccc(C=CC(=O)O)cc2)cc1 (stereo not shown) [Compound 61, 3-4'-(2-Carboxyvinyl)-phenoxy!-1-(4'-t-butylphenoxy)-propanol-(2)]
inhibition in vivo at 100 mg/kg [2, 3]: 44.9 ± 13.8%
inhibition in vivo at 100 mg/kg [2, 4]: 81.2 ± 17.1%

COC(=O)C=Cc1cccc(OCC(O)COc2ccc(Cl)cc2)c1 (stereo not shown) [Compound 14]
inhibition in vivo at 100 mg/kg [2, 3]: 22.9 ± 5.2%
inhibition in vivo at 100 mg/kg [2, 4]: 64.8 ± 17.7%

CC(C)OC(=O)c1ccc(OCC(O)COc2ccc(Cl)cc2)cc1 (stereo not shown) [Compound 5]
inhibition in vivo at 100 mg/kg [2, 3]: 15.5 ± 14.7%
inhibition in vivo at 100 mg/kg [2, 4]: 54.6 ± 28.3%

O=C(O)C=Cc1cccc(OCC(O)COc2ccc(Cl)cc2)c1 (stereo not shown) [Compound 57, 3-3'-(2-Carboxyvinyl)-phenoxy!-1-(4'-chlorphenoxy)-propanol-(2)]
inhibition in vivo at 100 mg/kg [2, 3]: 28.4 ± 11.1%
inhibition in vivo at 100 mg/kg [2, 4]: 61.8 ± 10.9%

COCCOC(=O)C=Cc1ccc(OCC(O)COc2ccc(Cl)cc2)cc1 (stereo not shown) [Compound 47]
inhibition in vivo at 100 mg/kg [2, 3]: 44.4 ± 18%
inhibition in vivo at 100 mg/kg [2, 4]: 57.8 ± 10.7%

COC(=O)c1ccc(OCC(CSc2ccc(Cl)cc2)OC(=O)c2cccnc2)cc1 (stereo not shown) [Compound 104]
inhibition in vivo at 100 mg/kg [2, 3]: 48 ± 7.9%
inhibition in vivo at 100 mg/kg [2, 4]: 81.1 ± 5.6%

COC(=O)c1ccc(OCC(COc2ccc(Cl)cc2)OC(=O)c2cccnc2)cc1 (stereo not shown) [Compound 95, 3-(4'-methoxycarbonylphenoxy)-1-(4'-chlorophenoxy)-propanol-(2) nicotinic acid ester]
inhibition in vivo at 100 mg/kg [2, 3]: 38.3 ± 15.4%
inhibition in vivo at 100 mg/kg [2, 4]: 63.8 ± 14.8%

COCCOC(=O)c1ccc(OCC(O)COc2ccc(C(C)(C)C)cc2)cc1 (stereo not shown) [Compound 49]
inhibition in vivo at 100 mg/kg [2, 3]: 33.1 ± 16.7%
inhibition in vivo at 100 mg/kg [2, 4]: 76.1 ± 14.6%

CC(C)(C)c1ccc(OCC(O)COc2ccc(C(=O)OCCO)cc2)cc1 (stereo not shown) [Compound 48]
inhibition in vivo at 100 mg/kg [2, 3]: 60.4 ± 6.7%
inhibition in vivo at 100 mg/kg [2, 4]: 85.5 ± 15.6%

CC(C)OC(=O)C=Cc1ccc(OCC(O)COc2ccc(Cl)cc2)cc1 (stereo not shown) [Compound 13]
inhibition in vivo at 100 mg/kg [2, 3]: 50.4 ± 7.3%
inhibition in vivo at 100 mg/kg [2, 4]: 79.7 ± 10.4%

COC(=O)C=Cc1ccc(OCC(O)CNc2ccc(Cl)cc2)cc1 (stereo not shown) [Compound 29]
inhibition in vivo at 100 mg/kg [2, 3]: 12.7 ± 12.5%
inhibition in vivo at 100 mg/kg [2, 4]: 62.3 ± 10.7%

CCCOC(=O)c1ccc(OCC(O)COc2ccc(Cl)cc2)cc1 (stereo not shown) [Compound 4]
inhibition in vivo at 100 mg/kg [2, 3]: 53 ± 7.5%
inhibition in vivo at 100 mg/kg [2, 4]: 74.2 ± 13.4%

O=C(O)c1ccc(OCC(O)COc2ccc(Cl)cc2)cc1 (stereo not shown) [Compound 53, 3-(4'-Carboxyphenoxy)-1-(4'-chlorphenoxy)-propanol-(2)]
inhibition in vivo at 100 mg/kg [2, 3]: 40.5 ± 13.5%
inhibition in vivo at 100 mg/kg [2, 4]: 83.6 ± 15.5%

C=CCOC(=O)c1ccc(OCC(O)COc2ccc(C(C)(C)C)cc2)cc1 (stereo not shown) [Compound 17]
inhibition in vivo at 100 mg/kg [2, 3]: 55.8 ± 7.1%
inhibition in vivo at 100 mg/kg [2, 4]: 83.4 ± 8.8%

O=C(O)c1cccc(OCC(O)COc2ccc(Cl)cc2)c1 (stereo not shown) [Compound 54, 3-(3'-Carboxyphenoxy)-1-(4'-chlorphenoxy)-propanol-(2)]
inhibition in vivo at 100 mg/kg [2, 3]: 28.7 ± 10.2%
inhibition in vivo at 100 mg/kg [2, 4]: 80 ± 11.4%

CC(C)(C)c1ccc(OCC(O)CNc2cccc(C(=O)O)c2)cc1 (stereo not shown) [Compound 71, 3-(3'-Carboxyphenylamino)-1-(4'-t-butylphenoxy)-propanol-(2)]
inhibition in vivo at 100 mg/kg [2, 3]: 28.9 ± 9.5%
inhibition in vivo at 100 mg/kg [2, 4]: 58.4 ± 15.5%

O=C(O)c1ccc(NCC(O)COc2ccc(Cl)cc2)cc1 (stereo not shown) [Compound 68, 3-(4'-Carboxyphenylamino)-1-(4'-chlorphenoxy)-propanol-(2)]
inhibition in vivo at 100 mg/kg [2, 3]: 15.2 ± 10%
inhibition in vivo at 100 mg/kg [2, 4]: 54.1 ± 17%

COC(=O)C=Cc1ccc(OCC(O)COc2ccc(Cl)cc2)cc1 (stereo not shown) [Compound 8, 3-(4'-(2-methoxycarbonylvinyl)-phenoxy)-1-(4'-chlorophenoxy)-propanol-(2)]
inhibition in vivo at 100 mg/kg [2, 3]: 17.3 ± 26%
inhibition in vivo at 100 mg/kg [2, 4]: 52.1 ± 7.7%

CC(C)(C)c1ccc(NCC(O)COc2ccc(C(=O)O)cc2)cc1 (stereo not shown) [Compound 72, 3-(4'-Carboxyphenoxy)-1-(4'-t-butylphenylamino)-propanol-(2)]
inhibition in vivo at 100 mg/kg [2, 3]: 53.7 ± 10.4%
inhibition in vivo at 100 mg/kg [2, 4]: 75.1 ± 9.9%

O=C(CCc1ccc(OCC(O)COc2ccc(Cl)cc2)cc1)NO (stereo not shown) [Compound 107]
inhibition in vivo at 100 mg/kg [2, 3]: 49.6 ± 13.3%
inhibition in vivo at 100 mg/kg [2, 4]: 84.8 ± 4.1%

O=C(OCc1cccnc1)c1ccc(OCC(O)COc2ccc(Cl)cc2)cc1 (stereo not shown) [Compound 85, 3-(4'-pyridyl-(3)-methoxycarbonylphenoxy)-1-(4'-chlorophenoxy)-propanol-(2)]
inhibition in vivo at 100 mg/kg [2, 3]: 52 ± 8.6%
inhibition in vivo at 100 mg/kg [2, 4]: 81.4 ± 5.9%

COC(=O)c1ccc(OCC(O)COc2ccc(Cl)cc2)cc1 (stereo not shown) [Compound 1, 3-(4'-methoxycarbonylphenoxy)-1-(4'-chlorophenoxy)propanol-(2)]
inhibition in vivo at 100 mg/kg [2, 3]: 47.9 ± 10.2%
inhibition in vivo at 100 mg/kg [2, 4]: 63.8 ± 17.2%

CC(C)(C)c1ccc(OCC(O)COc2ccc(CCC(=O)O)cc2)cc1 (stereo not shown) [Compound 62, 3-4'-(2-Carboxyathyl)-phenoxy!-1-(4'-t-butylphenoxy)-propanol-(2)]
inhibition in vivo at 100 mg/kg [2, 3]: 38.7 ± 15%
inhibition in vivo at 100 mg/kg [2, 4]: 91.9 ± 5%

O=C(NO)c1ccc(OCC(O)COc2ccc(Cl)cc2)cc1 (stereo not shown) [Compound 105]
inhibition in vivo at 100 mg/kg [2, 3]: 29.8 ± 14.3%
inhibition in vivo at 100 mg/kg [2, 4]: 53.2 ± 11.2%

COC(OC)c1ccc(OCC(O)CSc2ccc(Cl)cc2)cc1 (stereo not shown) [Compound 116]
inhibition in vivo at 100 mg/kg [2, 3]: 43.2 ± 9.8%
inhibition in vivo at 100 mg/kg [2, 4]: 74 ± 9.8%

COC(=O)c1ccc(OCC(O)CNc2ccc(C(C)(C)C)cc2)cc1 (stereo not shown) [Compound 35]
inhibition in vivo at 100 mg/kg [2, 3]: 51.9 ± 9.3%
inhibition in vivo at 100 mg/kg [2, 4]: 79.2 ± 9%
